Source: patent US4119710A, “Bronchospasmolytic 1-(p-amino-phenyl)-2-amino-ethanols-(1) and salts” (Boehringer Ingelheim GmbH, priority 1972, dated 1978)
Counter-ions that a name gives are not always drawn. Like-named read-outs stand apart in the source and are kept apart here.

What was measured:
β1 -receptors = biological target: T1, β1 -receptors (Felis catus, UniProt Q9TST6); experiment: β1-blocking activity: antagonism to tachycardia provoked by N-isopropyl-noradrenalin sulfate in anesthetized cats; assay type: in vivo; conditions: cat, iv
T1 construct: tested on anesthetized cats; from tissue; host or cells: living anesthetized cat, heart (heart rate)
Experimental: (§1) The compounds of this invention were tested for toxicity and with regard to their action on the β-receptors in warm-blooded animals, such as cats and guinea pigs, by the methods described below, and the following test results were obtained for representative species of the genus, where
The β1 -blocking activity was tested on anesthetized cats as antagonism to tachycardia provoked by a standard dose of 1.0 γ/kg i.v. of N-isopropyl-noradrenalin sulfate. From the average percentage reduction in heart rate acceleration caused by N-isopropyl-noradrenalin sulfate, obtained by various doses of the test compound in question, a median effective dose (ED50) was determined by graphic extrapolation (see Tables II and III).

β2 -receptors [1] = biological target: T2, β2 -receptors (Cavia porcellus, UniProt Q8K4Z4); experiment: β2-blocking activity: antagonism to broncholytic activity of N-isopropyl-noradrenalin sulfate in anesthetized guinea pigs (Konzett-Rossler); assay type: in vivo; conditions: guinea pig, iv, d(+)-isomers, 5 γ/kg i.v. N-isopropyl-noradrenalin sulfate after 20 γ/kg i.v. acetylcholine (Table III), read-out: Blocking Action on β2 -receptors ED50
T2 construct: tested on anesthetized guinea pigs; from tissue; host or cells: living anesthetized guinea pig, airways (Konzett-Rossler)
Experimental: as §1
The β2 -blocking activity was tested on anesthetized guinea pigs as antagonism to the broncholytic activity which is observed upon administration of 5 γ/kg body weight i.v. of N-isopropyl-noradrenalin sulfate in the test arrangement according to Konzett-Rossler, following the inducement of a bronchospasm caused by a standard dose of 20 γ/kg body weight i.v. of acetylcholine (see Table III).

[2] = acute toxicity in mice (LD50, Litchfield and Wilcoxon); conditions: mouse, in vivo, iv, groups of 10, i.v.
Experimental: as §1
The acute toxicity of the compounds was determined on groups of 10 mice.

β2 -receptors [3] = biological target: T2, β2 -receptors; experiment: β2-mimetic activity: antagonism to acetylcholine bronchospasm in anesthetized guinea pigs (Konzett-Rossler); assay type: in vivo
Experimental: as §1
The β2 -mimetic activity was tested on anesthetized guinea pigs as antagonism to bronchospasm provoked by intravenous administration of 20 γ of acetylcholine per kg body weight (according to the method of Konzett-Rossler) by intravenous administration of the test compound. From the average percentage decrease of the bronchospasm produced by various doses of the test compound, a median effective dose (ED50) was determined by graphic extrapolation (see Table I).

[4] = d(+)-isomers, tachycardia by 1.0 γ/kg i.v. N-isopropyl-noradrenalin sulfate (Table III), read-out: Blocking Action on β1 -receptors ED50
[5] = deaths within 14 days, d(+)-isomers (Table III), read-out: acute toxicity LD50 (Table III)

T2 sequence (Q8K4Z4 whole entry): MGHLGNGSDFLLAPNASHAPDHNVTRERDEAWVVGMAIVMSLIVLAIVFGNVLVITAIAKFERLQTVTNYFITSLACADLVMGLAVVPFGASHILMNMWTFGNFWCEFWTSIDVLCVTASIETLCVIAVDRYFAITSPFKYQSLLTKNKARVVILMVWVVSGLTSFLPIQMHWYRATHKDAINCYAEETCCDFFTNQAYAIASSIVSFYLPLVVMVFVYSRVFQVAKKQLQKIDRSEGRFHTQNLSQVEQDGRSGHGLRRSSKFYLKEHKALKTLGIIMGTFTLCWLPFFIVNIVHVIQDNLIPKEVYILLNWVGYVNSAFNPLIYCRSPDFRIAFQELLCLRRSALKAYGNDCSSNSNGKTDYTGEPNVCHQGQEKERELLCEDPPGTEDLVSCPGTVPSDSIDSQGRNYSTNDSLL
T1 sequence (Q9TST6 whole entry): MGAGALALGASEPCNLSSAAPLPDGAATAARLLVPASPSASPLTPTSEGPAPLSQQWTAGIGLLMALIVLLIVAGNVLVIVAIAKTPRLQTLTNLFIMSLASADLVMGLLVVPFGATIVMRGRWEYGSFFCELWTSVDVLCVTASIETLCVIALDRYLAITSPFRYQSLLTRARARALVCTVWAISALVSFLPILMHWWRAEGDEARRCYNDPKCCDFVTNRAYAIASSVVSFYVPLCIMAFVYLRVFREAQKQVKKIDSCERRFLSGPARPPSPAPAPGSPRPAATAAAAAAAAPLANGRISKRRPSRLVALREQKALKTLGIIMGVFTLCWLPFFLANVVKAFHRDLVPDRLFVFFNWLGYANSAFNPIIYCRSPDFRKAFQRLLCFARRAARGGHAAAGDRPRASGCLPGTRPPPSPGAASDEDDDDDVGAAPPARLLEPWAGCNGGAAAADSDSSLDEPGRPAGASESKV

Q: With `CC(C)(C)NCC(O)c1cc(F)c(N)c(Cl)c1` (single isomer, unassigned) [D-d(+), d-1-(4'-Amino-3'-chloro-5'-fluoro-phenyl)-2-tert.butylamino-ethanol] as the compound, how does the ED50 (β1 -receptors; [4]) read?
A: 0.0062 mg/kg

Q: And the ED50 (β2 -receptors [1])?
A: > 2 mg/kg

Q: And the LD50 at 336 h [2, 5]?
A: 34.2 mg/kg

Q: Which ED50 (β1 -receptors; [4]) does the source give for `CC(C)(C)NCC(O)c1cc(Cl)c(N)c(C(F)(F)F)c1` (single isomer, unassigned) [G-d(+), d-1-(4'-Amino-3'-chloro-5'-trifluoromethyl-phenyl)-2-tert.butylamino-ethanol] here?
A: 0.0125 mg/kg

Q: What about the ED50 (β2 -receptors [1]) of the same compound?
A: > 2 mg/kg

Q: And the LD50 at 336 h [2, 5]?
A: 33.2 mg/kg

Q: For `CC(C)(C)NCC(O)c1cc(F)c(N)c(Br)c1` (single isomer, unassigned) [A-d(+), d-1-(4'-amino-3'-bromo-5'-fluoro-phenyl)-2-tert.butylamino-ethanol hydrochloride], which ED50 (β1 -receptors; [4]) is on record?
A: 0.0084 mg/kg

Q: What about the ED50 (β2 -receptors [1]) of the same compound?
A: > 2 mg/kg

Q: And the LD50 at 336 h [2, 5]?
A: 37.2 mg/kg

Q: Which ED50 (β1 -receptors; [4]) does the source give for `CC(C)(C)NCC(O)c1ccc(N)c(F)c1` (single isomer, unassigned) [E-d(+), d-1-(4'-amino-3'-fluoro-phenyl)-2-tert.butylamino-ethanol hydrochloride] here?
A: 0.0015 mg/kg

Q: And the ED50 (β2 -receptors [1])?
A: > 2 mg/kg

Q: What does the source list for `CC(C)(C)NCC(O)c1cc(C#N)c(N)c(C#N)c1.Cl` (stereo not drawn) [X, 1-(4'-amino-3',5'-dicyano-phenyl)-2-tert.butylamino-ethanol hydrochloride]?
A: ED50 (β2 -receptors [3]; guinea pig, iv, bronchospasm by 20 γ/kg acetylcholine i.v., test compound i.v., graphic extrapolation (Table I)): 0.0113 mg/kg; Duration of activity (β2 -mimetic activity) (β2 -receptors [3]; i.v. (Table I)): > 65 min; ED50 (β1 -receptors; tachycardia by 1.0 γ/kg i.v. N-isopropyl-noradrenalin sulfate, graphic extrapolation (Table II), read-out: Blocking action on the β1 -receptors ED50): 0.00092 mg/kg; LD50 at 336 h ([2]; deaths within 14 days (Table II), read-out: LD50): 166 mg/kg
